# According to patent US6893858B2, “Human kcnq5 potassium channel, methods and compositions thereof” (Bristol-Myers Squibb Company, priority 2000, dated 2005):
# Biological target: hKCNQ5 (Homo sapiens, UniProt Q9NR82)
# Sequence (Q9NR82 36-932): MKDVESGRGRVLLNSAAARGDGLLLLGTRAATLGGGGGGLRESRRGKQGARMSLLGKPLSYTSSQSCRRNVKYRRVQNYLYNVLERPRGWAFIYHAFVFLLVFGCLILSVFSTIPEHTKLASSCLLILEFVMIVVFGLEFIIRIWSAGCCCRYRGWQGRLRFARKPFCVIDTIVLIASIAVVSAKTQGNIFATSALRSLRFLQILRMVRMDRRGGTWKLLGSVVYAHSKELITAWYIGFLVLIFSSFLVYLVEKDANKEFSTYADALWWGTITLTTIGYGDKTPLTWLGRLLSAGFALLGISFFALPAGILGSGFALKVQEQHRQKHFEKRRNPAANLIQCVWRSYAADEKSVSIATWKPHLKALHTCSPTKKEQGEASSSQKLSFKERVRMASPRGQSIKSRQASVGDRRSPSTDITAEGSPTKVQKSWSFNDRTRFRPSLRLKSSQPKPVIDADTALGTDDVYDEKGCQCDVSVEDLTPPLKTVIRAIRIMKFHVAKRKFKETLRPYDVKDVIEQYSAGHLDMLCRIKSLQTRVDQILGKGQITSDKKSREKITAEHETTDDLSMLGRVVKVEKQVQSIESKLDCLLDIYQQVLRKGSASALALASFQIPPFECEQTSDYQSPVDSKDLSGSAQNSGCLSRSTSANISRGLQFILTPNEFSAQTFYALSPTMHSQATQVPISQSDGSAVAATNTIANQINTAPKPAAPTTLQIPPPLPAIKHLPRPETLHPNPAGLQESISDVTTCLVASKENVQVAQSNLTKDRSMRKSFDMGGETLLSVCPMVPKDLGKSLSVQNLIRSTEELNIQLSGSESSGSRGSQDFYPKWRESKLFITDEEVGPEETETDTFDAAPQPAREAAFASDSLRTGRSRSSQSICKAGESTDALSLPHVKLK
# Method: Frog (Xenopus laevis) oocytes were prepared and injected using standard techniques; each oocyte was injected with approximately 50 nl of hKCNQ5 cRNA. Following injection, oocytes were maintained at 17° C. in ND96 medium comprising (in mM): NaCl, 90; KCl, 1.0; CaCl2, 1.0; MgCl2, 1.0; HEPES, 5.0; pH 7.5. Horse serum (5%) and penicillin/streptomycin (5%) were added to the incubation medium. Recording commenced 2-6 days following mRNA injection. Prior to the start of an experiment, oocytes were placed in a recording chamber and incubated in Modified Barth's Solution (MBS) consisting of (in mM): NaCl, 88; NaHCO3, 2.4; KCl, 1.0; HEPES, 10; MgSO4, 0.82; Ca(NO3)2, 0.33; CaCl2, 0.41; pH 7.5. Oocytes were impaled with electrodes (1-2 MΩ) and standard 2-electrode voltage clamp techniques were employed to record whole-cell membrane currents. Voltage-clamp protocols typically consisted of a series of voltage steps 1-5 second duration, in +10 mV steps from a holding potential of −90 mV to a maximal potential of +40 mV; records were digitized at 5 kHz and stored on a computer using pClamp data acquisition and analysis software (Axon Instruments).
compound,measurement,setting,value
"CC[N+](CC)(CC)CC [TEA, tetraethylammonium]",resistance of hKCNQ5 currents to the potassium channel blocker,"hKCNQ5 cRNA expressed in Xenopus oocytes, concentrations as high as 30 mM, whole-cell outward currents",largely resistant
same,blockage of hKCNQ5 outward currents (FIG. 8 legend),"hKCNQ5 expressed in Xenopus oocytes, at high concentrations",resistant to blockage
